In patent publication US6482850B2, “Hydrolysis-promoting hydrophobic taxane derivatives” (priority 1995, dated 2002):

Assays:
[1] = system: OVCAR-3 human ovarian cancer; assay: i.p. OVCAR-3 tumor, i.v. treatment, survival (FIG. 6); assay type: in vivo, mice
Experimental: Mice were observed daily for mortality and % ILS was calculated as described above.

[2] = system: MCF-7/ADR (adriamycin-resistant); assay: In vitro sensitivity, sulforhodamine B cytotoxicity assay, MCF-7/ADR (Table 2); assay type: cell-based, human; settings: Homo sapiens, NCI/ADR-RES; 72-hour incubation; averaged from two separate experiments
[3] = High sensitivity differential scanning calorimetry on phosphocholine bilayers; assay type: physicochemical; settings: DMPC, DPPC and DSPC bilayers, as high as 9.1 mol % (Lipid/Drug, 10:1)
Text: High sensitivity differential scanning calorimetry (DSC) was used to examine the effect of addition of taxol and its acylated derivatives on the thermotropic phase properties of phosphocholine bilayers of saturated 1, 2-dimyristoyl-sn-glycero-3-phosphocholines (DMPC), 1,2-dipalmitoyl-sn-glycero-3-phosphocholines (DPPC), and 1,2-distearoyl-sn-glycero-3-phosphocholines (DSPC). Likewise, three acylated taxol prodrugs were varied in chain lengths from six, twelve, to sixteen carbons.

[4] = system: OVCAR-3 cancer cells; assay: cells; settings: Homo sapiens, OVCAR-3, 72 h, read-out: GI50 ± S.D. OVCAR-3
Experimental: Briefly, 96-well microtiter plates were inoculated (100 μL/well) with 5×10^3 (A549) or 7.5×10^3 (OVCAR-3) cells/well, in RPMI-1640 supplemented with 10% FBS (growth media). The plates were incubated for 24 hr at 37° C., 100% humidity and 5% CO2. At 24 hours, growth media (100 μL) was added to designated “time zero” plates. Similarly, serial dilutions of drug or vehicle (in media) were added (100 μL aliquots) to the test and vehicle control wells at twice the predetermined highest concentration. There were triplicate wells on each plate and duplicate plates (total 6 wells) for each drug concentration. The test plates were incubated as above for 72 hr. Cells (including time zero plates) were then fixed with 50 μL of 50% trichloroacetic acid (TCA) (w:v) for adherent cells or 80% TCA for suspended cells, and plates refrigerated at 4° C. for 1 hr. […] The bound stain was solubilized with 100 μL of 10 mM Tris buffer and the optical density was read spectrophotometrically at 490 nm (Microplate Reader Model 3550-UV, Bio-Rad, Hercules, Calif.). Percent growth was calculated as follows: (T-T0) / (C-T0)×100; where (T)=mean optical density of treated wells at a given drug concentration, (T0)=mean optical density of time zero wells, and (C)=mean optical density of control wells.

[5] = system: A549 human NSCLC; assay: i.p. A549 tumor, i.p. treatment, survival; settings: i.p. on days 1, 3, 5, 7 & 9
Experimental: Note that long-term survivors (mice that survived through day 300 after cell inoculation) were not included in mean, median, or % ILS calculations.
SCID mice (6/group) were injected with 5×10^6 A549 human NSCLC cells i.p. (day 0).

[6] = system: OVCAR-3 human ovarian cancer; assay: i.p. OVCAR-3 tumor, i.p. treatment, survival
Experimental: C.B-17 SCID female mice were injected i.p. with 5×10^6 OVCAR-3 human ovarian cancer cells (day 0). […] Note that long-term survivors (mice that survived through day 300 after cell inoculation) were not included in mean, median, or % ILS calculations.

[7] = system: A549 cancer cells; assay: cells; settings: Homo sapiens, A549, 72 h, read-out: GI50 ± S.D. A549
Experimental: Briefly, 96-well microtiter plates were inoculated (100 μL/well) with 5×10^3 (A549) or 7.5×10^3 (OVCAR-3) cells/well, in RPMI-1640 supplemented with 10% FBS (growth media). The plates were incubated for 24 hr at 37° C., 100% humidity and 5% CO2. At 24 hours, growth media (100 μL) was added to designated “time zero” plates. Similarly, serial dilutions of drug or vehicle (in media) were added (100 μL aliquots) to the test and vehicle control wells at twice the predetermined highest concentration. There were triplicate wells on each plate and duplicate plates (total 6 wells) for each drug concentration. The test plates were incubated as above for 72 hr. Cells (including time zero plates) were then fixed with 50 μL of 50% trichloroacetic acid (TCA) (w:v) for adherent cells or 80% TCA for suspended cells, and plates refrigerated at 4° C. for 1 hr. The supernatant was discarded (suspended cell plates were first centrifuged) and the wells rinsed six times with tap water and air-dried. One hundred microliters of 0.4% SRB in 1% acetic acid were added to each well and the plates were incubated under ambient (RT) conditions for 10 min. Unbound stain was removed by rinsing the wells three times with 1% acetic acid. The plates were then air-dried for 24 hr. The bound stain was solubilized with 100 μL of 10 mM Tris buffer and the optical density was read spectrophotometrically at 490 nm (Microplate Reader Model 3550-UV, Bio-Rad, Hercules, Calif.). Percent growth was calculated as follows: (T-T0) / (C-T0)×100; where (T)=mean optical density of treated wells at a given drug concentration, (T0)=mean optical density of time zero wells, and (C)=mean optical density of control wells.

[8] = system: A-549 human lung carcinoma; assay: In vitro sensitivity, sulforhodamine B cytotoxicity assay, A-549 (Table 2); assay type: cell-based; settings: Homo sapiens, A549; 72-hour incubation; averaged from two separate experiments
Experimental: Briefly, 96-well microtiter plates were inoculated (100 μL/well) with 5×10^3 (A549) or 7.5×10^3 (OVCAR-3) cells/well, in RPMI-1640 supplemented with 10% FBS (growth media). The plates were incubated for 24 hr at 37° C., 100% humidity and 5% CO2. At 24 hours, growth media (100 μL) was added to designated “time zero” plates. Similarly, serial dilutions of drug or vehicle (in media) were added (100 μL aliquots) to the test and vehicle control wells at twice the predetermined highest concentration. […] Cells (including time zero plates) were then fixed with 50 μL of 50% trichloroacetic acid (TCA) (w:v) for adherent cells or 80% TCA for suspended cells, and plates refrigerated at 4° C. for 1 hr. […] The plates were then air-dried for 24 hr.

[9] = in vivo; settings: female, CDF1, mouse, plasma, intravenous, 25 mg/kg
Experimental: (§2) Control mice received an equivalent concentration of Cremophor® EL and ethanol (in PBS) only. At 1, 4, 8, 24 or 48 hr after injection mice were sacrificed and blood was collected via heart puncture into 1 cc syringes containing 0.05 mL of a 0.129M Sodium citrate solution (Baxter, N.J.). Samples were centrifuged at 10,000 ×g for 3 min and plasma removed. Extraction of test materials from plasma was done by adding an equal volume of acetonitrile containing 2C12-HT, 50 μg/ml, as an internal standard, and vortexing vigorously for 30 sec. Samples were then centrifuged for 3 min at 10,000 ×g and supernatant and drug levels determined via HPLC as described previously.

[10] = system: HT-29 human colon carcinoma cells; assay: In vitro sensitivity, sulforhodamine B cytotoxicity assay, HT-29 (Table 2); assay type: cell-based; settings: Homo sapiens, HT-29; 72-hour incubation; averaged from two separate experiments
[11] = system: MCF-7 human breast carcinoma; assay: In vitro sensitivity, sulforhodamine B cytotoxicity assay, MCF-7 (Table 2); assay type: cell-based; settings: Homo sapiens, MCF7; 72-hour incubation; averaged from two separate experiments
[12] = system: CDF1 female mice; assay: Acute toxicity of liposomal paclitaxel or paclitaxel derivative given intraperitoneally; settings: liposomes, i.p.
Experimental: Moreover, liposomes containing either paclitaxel or a 2′-(2-bromo) hydrophobic paclitaxel derivative (containing either a six-carbon (C-6), C-8, C-12, C-14 or C-16 acyl chain at the 2′ position) were administered, intraperitoneally in 5 doses, to SCID (severe combined inimunodeficiency) mice bearing a human ovarian cancer (OvCar 3), at a dose of 12.5 mg paclitaxel per kg or a dose of 50 mg paclitaxel derivative per kg.
CDF1 female mice, 5 or 10 mice per group, were intraperitoneally administered either paclitaxel-, 2′-C6-paclitaxel derivative-, or 2′-C16-paclitaxel derivative-containing liposomes, in a single dose, or 5 doses, of either 12.5, 25, 50, 100, 200, 300. 400 or 500 mg of paclitaxel or paclitaxel derivative per kg of mouse body weight.

[13] = system: A549 human lung cancer; assay: s.c. A549 tumor, i.v. treatment, tumor volume (FIG. 8); assay type: in vivo, mice; settings: i.v., independent of the dose schedule; BrC16HT 12.5-25 mg/kg, Taxol® 25 mg/kg
Text: Mice were sacrificed when the average tumor volume of the group reached 1500 mm^3.

[14] = system: CDF1 mice; assay: In vivo toxicity, i.p. x 5, non-tumor bearing mice; settings: 30 days observation
Experimental: (§1) A separate group (n=5) was injected with concentrations of Cremophor® EL and ethanol (in PBS) equivalent to the highest concentration of the test treatment. Mortality was recorded daily and body weights taken at least twice weekly for an observation period of 30 days.

[15] = In vivo toxicity, i.p. x 5, non-tumor bearing mice; settings: CDF1, mouse, in vivo, ip; i.p. once daily for five consecutive days; read-out: maximum tolerated i.p. dose (MTD, highest dose with no deaths)
Experimental: as §1

[16] = Pharmacokinetic, plasma levels after i.v. administration; settings: 25 mg/kg i.v., CDF1 female mice, 8 hours
Experimental: as §2

[17] = system: CDF1 mice; assay: In vivo toxicity, i.v. x 5, non-tumor bearing mice; settings: 30 days observation
Experimental: as §1

[18] = system: OVCAR-3 human ovarian cancer; assay: s.c. OVCAR-3 tumor, i.v. treatment, tumor volume (FIG. 7); assay type: in vivo, mice
Experimental: OVCAR-3 human ovarian cancer.
The tumor volume (mm^3) from tumor measurement was calculated: (Length * (Width/2)^2 * π). Mice were sacrificed when the average tumor volume of the group reached 1500 mm^3.

[19] = treated days 20, 22, 24, 26 and 28 i.p., 25 mg/kg
[20] = treated days 20, 22, 24, 26 and 28 i.p., 25 mg/kg, long-term survivors not included

For `CC(=O)O[C@H]1C(=O)[C@@]2(C)[C@H]([C@H](OC(=O)c3ccccc3)[C@]3(O)C[C@H](OC(=O)[C@H](O)[C@@H](NC(=O)c4ccccc4)c4ccccc4)C(C)=C1C3(C)C)[C@]1(OC(C)=O)CO[C@@H]1C[C@@H]2O` [Paclitaxel, reference compound], the medium survival times ([1]; 12.5 mg/kg i.v. on days 20, 22, 24, 26 & 28) was 170 days, the “survival time vs. control” value ([1]; 12.5 or 25 mg/kg i.v. on days 1, 3, 5, 7, 9, 42, 44, 46, 48 & 50 (FIG. 6a)) was “significantly (p<0.05 vs. control) increased the survival time” and the “survival time vs. control” value ([1]; i.v. on days 20, 22, 24, 26 & 28, BrC16HT 12.5 or 25 mg/kg, Taxol® 12.5 mg/kg (FIG. 6b)) was “significantly (p<0.05 vs. control) increased the survival time”. For the same molecule, the GI50 [2] was 4170 nM, the “perturbation of PC bilayers (DSC)” value [3] was “little or no effect on the perturbation of all three PC bilayers” and the GI50 [4] was 1.9 ± 0.03 nM. For the same molecule, the “survival time of tumor-bearing mice vs. control” value [5] was “significantly (p<0.05 vs. control) increased the survival time”, the “long-term survivors (LTS), in words” value ([6]; delayed i.p. schedule (Table 9b)) was “no long-term survivors were observed” and the “survival of tumor-bearing mice vs. control” value ([6]; early (days 1, 3, 5, 7 & 9) and delayed (days 20, 22, 24, 26 & 28) i.p. treatment schedules) was “significantly prolonged (p<0.05 vs. control) the survival”. The “% ILS” value [6, 19] was 84%, the “LTS/n (mice that survived to 300 days)” value [6, 19] was 0/10 and the “MST Days ± SEM (n)” value [6, 20] was 188 ± 15 (10) Days. For the same molecule, the Median survival time [6, 20] was 185 days, the GI50 [7] was 3.3 ± 0.8 nM and the GI50 [8] was 2.3 nM. It also gave a concentration at 1 h [9] of 14400 ± 4600 ng/mL, a concentration at 4 h [9] of under 5000 ng/mL and a GI50 [10] of under 1.4 nM. For the same molecule, the GI50 [11] was under 1.5 nM, the “number of mice that died within the first 14 days post-injection/total” value ([12]; five doses of 12.5 mg/kg) was 0/10 and the “number of mice that died within the first 14 days post-injection/total” value ([12]; five doses of 25 mg/kg) was 10/10. The “number of mice that died within the first 14 days post-injection/total” value ([12]; five doses of 50 mg/kg) was 10/10, the “number of mice that died within the first 14 days post-injection/total” value ([12]; single dose 12.5 mg/kg) was 0/10 and the “number of mice that died within the first 14 days post-injection/total” value ([12]; single dose 25 mg/kg) was 0/10. For the same molecule, the “number of mice that died within the first 14 days post-injection/total” value ([12]; single dose 50 mg/kg) was 0/10, the “number of mice that died within the first 14 days post-injection/total” value ([12]; single dose 100 mg/kg, 100 mg/kg) was 5/5 and the “number of mice that died within the first 14 days post-injection/total” value ([12]; single dose 100 mg/kg, listed as paclitaxel, 100 mg/kg) was “all five of the mice”. The “tumor growth vs. control” value [13] was “significantly (p <0.05 vs. control) inhibited the tumor growth”, the “Number of Mice surviving/Total” value ([14]; i.p. days 1 through 5, 12.5 mg/kg) was 20/20 and the “Number of Mice surviving/Total” value ([14]; i.p. days 1 through 5, 25 mg/kg) was 10/20. For the same molecule, the “Number of Mice surviving/Total” value ([14]; i.p. days 1 through 5, 37.5 mg/kg) was 0/10, the “Number of Mice surviving/Total” value ([14]; i.p. days 1 through 5, 50 mg/kg) was 0/25 and the MTD at 5 days [15] was 12.5 to 25 mg/kg. The “Plasma level of paclitaxel ± SEM” value [16] was “none detectable”, the “Number of Mice surviving/Total” value ([17]; i.v. days 1 through 5, 12.5 mg/kg) was 10/10 and the “Number of Mice surviving/Total” value ([17]; i.v. days 1 through 5, 25 mg/kg) was 8/10. The “Number of Mice surviving/Total” value ([17]; i.v. days 1 through 5, 37.5 mg/kg) was 0/7, the “Number of Mice surviving/Total” value ([17]; i.v. days 1 through 5, 50 mg/kg) was 0/8 and the delaying tumor growth ([18]; 25 mg/kg i.v. on days 1, 3, 5, 7 & 9) was about 59 days. The “tumor growth vs. control” value ([18]; i.v. on days 1, 3, 5, 7 & 9, BrC16HT 12.5-25 mg/kg, Taxol® 25 mg/kg) was “significantly (p<0.05 vs. control) inhibited the tumor growth”.
